Measured values published in US8354430B2, “Monohydrochloride salt of 1-[3-[3-(4-chlorophenyl) propoxy]propyl]-piperidine” (priority 2005, dated 2013).
“And” between values parts separate entries of the source, which are not always exact repeats. Equal values may be shown once. “Also recorded” adds a separate entry of the source.

How the values were obtained:
[1] = 13-week repeat oral dose study in monkeys; settings: monkey, in vivo
From the text: This dose was defined as the NOAEL in monkeys.

[2] = target: Human H1R (Homo sapiens, UniProt P35367); test: Histamine-induced increase in [35S]GTPγS binding; assay type: biochemical; settings: read-out: Ki or IC50, [35S]GTPγS
Sequence of Human H1R (P35367 whole entry): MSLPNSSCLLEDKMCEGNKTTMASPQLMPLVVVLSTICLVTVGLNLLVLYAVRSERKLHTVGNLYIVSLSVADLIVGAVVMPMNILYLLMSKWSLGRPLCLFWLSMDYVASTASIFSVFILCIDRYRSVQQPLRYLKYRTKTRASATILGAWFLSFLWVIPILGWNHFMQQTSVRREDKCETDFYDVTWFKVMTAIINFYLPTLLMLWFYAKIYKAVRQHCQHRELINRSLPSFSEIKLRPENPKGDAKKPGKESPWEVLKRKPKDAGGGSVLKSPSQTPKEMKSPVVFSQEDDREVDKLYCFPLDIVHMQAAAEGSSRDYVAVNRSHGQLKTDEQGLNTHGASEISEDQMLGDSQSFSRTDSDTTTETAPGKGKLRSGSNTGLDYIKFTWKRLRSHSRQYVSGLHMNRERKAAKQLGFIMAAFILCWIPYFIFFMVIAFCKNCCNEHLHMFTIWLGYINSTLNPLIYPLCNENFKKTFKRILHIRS

[3] = system: mice; test: Sleep-wake cycle study in mice (EEG/EMG); assay type: in vivo, mouse
Experimental: (§1) Animals were chronically implanted with cortical and muscle electrodes to record EEG and EMG respectively, to allow monitoring their sleep-wake cycle. After recovery from surgery, animals were housed individually in a sound-proof recorded room maintaining at appropriate ambient temperature on a 12 h light/dark cycle. Polygraphic recordings were performed during 4 days to collect reference qualitative and quantitative data of sleep-wake control in each individual. Then, pharmacological evaluation was performed over 24 h sessions and analyzed by successive 30 sec epochs. Wakefulness and sleep states were identified as previously described for cats [Petitjean et al., Brain Res., 1975, 88: 439-53] and mice [Valatx and Bugat, Brain Res., 1974, 69: 315-30].
Polygraphic recordings were started 15 days after surgery (5 days recovery plus 10 days acclimation to the recording wires). Sleep-wake recording criteria included wakefulness (W), slow wave sleep (SWS) and paradoxical sleep (PS). Spectral analysis of EEG was performed by Fast-Fourier Transform in the 0.8-2.5 Hz, 8-15 Hz and 30-60 Hz frequency bands.

[4] = system: epileptic patients; test: Photo paroxysmal response (PPR) to intermittent photic stimulation in photosensitive epileptic patients, single-blind single dose; assay type: in vivo, human; settings: for Delay of apparition / Duration of effect / Suppression of PPR: individual patients
From the text: Acta Neurol. […] Unlike most other epilepsies, photosensitive epilepsy is a reflex epilepsy and epileptiform discharges can be evoked at any time by IPS in the laboratory. By determination of both upper and lower sensitivity limits (frequencies per flash) a so-called photosensitivity range can be determined. The range is related to liability of seizures in daily life of the patient. This photosensitivity range is relatively stable within a patient and can be diminished or abolished by antiepileptic medication. […] Twelve patients have been enrolled. Four patients received the dose of 20 mg. […] Four patients received the dose of 40 mg.

[5] = system: volunteers; test: Phase I study of subjective satiety, interaction with olanzapine; assay type: in vivo, human
Experimental: A single-center, open-label, placebo-controlled phase I study was performed to evaluate the subjective satiety in 6 volunteers. The volunteers enrolled in the study underwent five single day administration periods.

[6] = system: GAERS rats; test: Absence epilepsy in GAERS rat; assay type: in vivo
From the text: A strain of Wistar rats with spontaneously generalized non convulsive seizures (absence seizures) has been developed in Strasbourg (Genetic Absence Epilepsy Rats of Strasbourg or GAERS). Seizures are characterized by bilateral and synchronous spike-and-wave discharges (7-9 Hz) on EEG, concomitant with behavioral arrests. These discharges generally last about 20 sec and occur spontaneously every minute when the animals are in a state of quiet wakefulness. Pharmacological reactivity of this model is similar to human absence-epilepsy (e.g., valproate and ethosuccimide are protective). After a recovery period, implanted rats (cortical and hippocampal EEG electrodes) were recorded over a 20 min reference period. […] Rats received the alternative treatment one week later. Cumulated duration of absence-seizures was measured by 20 min periods during the two sessions. Fast Fourier transform analysis of EEG recording allowed detection of any rhythm change during both ictal and inter-ictal periods (background activity).

[7] = target: human H3R (Homo sapiens, UniProt Q9Y5N1); test: A23187-evoked [3H]arachidonic acid release from CHO cells expressing human H3R; assay type: cell-based; set-up: expressed in transfected cells; host or cells: CHO cells; settings: 1 μM, human H3R 300-400 fmol/mg protein
Sequence of human H3R (Q9Y5N1 whole entry): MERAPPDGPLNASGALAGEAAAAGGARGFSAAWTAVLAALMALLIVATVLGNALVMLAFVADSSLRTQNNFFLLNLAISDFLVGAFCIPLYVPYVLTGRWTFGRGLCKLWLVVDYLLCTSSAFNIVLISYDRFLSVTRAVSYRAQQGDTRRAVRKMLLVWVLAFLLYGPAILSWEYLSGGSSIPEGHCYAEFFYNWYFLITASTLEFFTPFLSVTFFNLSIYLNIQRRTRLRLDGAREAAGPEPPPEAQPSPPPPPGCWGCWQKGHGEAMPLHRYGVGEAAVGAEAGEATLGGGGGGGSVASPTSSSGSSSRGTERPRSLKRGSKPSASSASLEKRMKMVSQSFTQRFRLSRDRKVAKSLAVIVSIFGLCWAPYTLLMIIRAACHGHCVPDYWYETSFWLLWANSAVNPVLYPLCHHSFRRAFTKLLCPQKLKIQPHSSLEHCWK

[8] = system: cats; test: Sleep-wake cycle study in cats (EEG/EMG); assay type: in vivo, cat
Experimental: as §1, with “[[…]” for “[Valatx”, “315-30]. Polygraphic recordings were started 7 days after surgery. Sleep-wake recording criteria included wakefulness (W), light slow wave sleep (SWS1), deep […]2) and paradoxical sleep (PS). Spectral analysis of EEG was performed by Fast-Fourier Transform in the frequency bands 0.8-2.5 Hz ([delta] slow waves), 8-15 Hz (spindles) and 20-45 Hz ([beta] and [gamma] rapid waves).” for “315-30].”

[9] = target: T1, Mouse Brain native H3R (Mus musculus, UniProt P58406); test: Histamine H3 receptor binding, mouse brain cortex membranes
T1 construct: was performed on mouse brain cortex membranes; from tissue; host or cells: mouse brain cortex membranes
T1 sequence (P58406 whole entry): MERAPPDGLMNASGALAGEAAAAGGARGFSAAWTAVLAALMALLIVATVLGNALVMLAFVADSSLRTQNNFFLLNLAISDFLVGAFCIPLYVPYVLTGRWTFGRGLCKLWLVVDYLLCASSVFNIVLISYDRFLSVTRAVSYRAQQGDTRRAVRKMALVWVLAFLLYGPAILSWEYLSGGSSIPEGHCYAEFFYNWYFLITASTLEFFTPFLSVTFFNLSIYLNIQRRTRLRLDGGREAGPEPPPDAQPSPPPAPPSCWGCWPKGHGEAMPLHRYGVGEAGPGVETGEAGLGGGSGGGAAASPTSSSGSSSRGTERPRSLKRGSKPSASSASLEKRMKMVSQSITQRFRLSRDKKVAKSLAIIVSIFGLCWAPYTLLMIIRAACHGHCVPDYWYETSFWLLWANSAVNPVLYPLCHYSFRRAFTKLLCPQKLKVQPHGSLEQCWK

[10] = 40 mg single dose, monohydrochloride
[11] = 60 mg single dose, monohydrochloride

Cl.Clc1ccc(CCCOCCCN2CCCCC2)cc1 [1-[3-[3-(4-chlorophenyl)propoxy]propyl]-piperidine monohydrochloride]
NOAEL at 13 weeks [1]: 5 mg/kg/day | IC50 [2]: > 10000 nM | increase in W duration ([3]; 10 mg/kg oral): 29% | increase in W duration ([3]; 20 mg/kg oral): 69% | behavioral change in treated mice ([3]; oral): No behavioral change | awakening (W) at the expense of SWS and PS ([3]; oral, 2.5, 5, 10 or 20 mg/kg): dose-dependent increase in awakening | Delay of apparition ([4]; 20 mg single dose): 2 h | Duration of effect ([4]; 20 mg single dose): 6 h | Suppression of PPR ([4]; 20 mg single dose, monohydrochloride): No (3×) and Total | Delay of apparition [4, 10]: <1 hour hours and 2 hours | Duration of effect [4, 10]: >8 h and 26 h | Suppression of PPR [4, 10]: No (2×) and Total and Partial | Delay of apparition [4, 11]: 2 hours and <1 hour hours (3×) | Duration of effect [4, 11]: >8 hours (2×) and >36 hours and 26 hours | Suppression of PPR [4, 11]: Partial; also recorded: Total | clinical response ([4]; 60 mg, four patients): clinical response in all four patients | appearance of effect post administration ([4]; 20-60 mg, overall): 1 to 2 h | subjective satiety versus placebo ([5]; 60 mg): significantly increased | subjective satiety, association with olanzapine ([5]; 60 mg + olanzapine 5 mg): able to counteract the effect of olanzapine leading to subjective satiety superimposable to placebo | reduction of cumulated duration of spike-and-wave discharges vs. saline ([6]; 5 mg/kg, i.p.): 25% | reduction of cumulated duration of spike-and-wave discharges vs. saline ([6]; 20 mg/kg, i.p.): 77% | number and cumulated durations of spike and wave discharges ([6]; 20 mg/kg, i.p., 20, 40 and 60 min after administration): significantly decreased | EEG background activity (spectral analysis of inter-ictal periods) ([6]; epilepsy models): not associated with significant change in EEG background activity | reduction of the A23187-evoked [3H]AA release [7]: 20% | time animals almost permanently wakeful ([8]; 10 mg/kg oral): 6 to 12 h | increase in W duration ([8]; 10 mg/kg oral, 6 h recording period): 79% | animal behavior after treatment ([8]; oral): No major change in the animal behavior | awakening (W) at the expense of SWS and PS ([8]; oral, 5 or 10 mg/kg): dose-dependent increase in awakening | Ki ([9]; radioligand [3H](R)α-MeHA): 5.7 ± 0.2 nM | Ki ([9]; radioligand [125I]iodoproxyfan): 14 ± 0.1 nM
